# Experiments:
# [1] = tested on: Min mouse; experiment: Polyp number in Min mouse model; format: in vivo
# Description: COMPOUND 4, COMPOUND 5, or vehicle was administrated in wild type and Min mice. COMPOUND 4 is also an analog of COMPOUND 1 (FIG. 1A). The numbers of polyp formed in small intestine and colon of these mice after various treatments were measured (Table 6).
# [2] = Bioavailability study in mouse; format: in vivo; settings: i.v and p.o, 10 mg/kg, 20% Tween 80
# Description: Bioavailability of COMPOUND 3, COMPOUND 4 and COMPOUND 5 was studied in mouse and rat. All the compounds were administered (i.v and p.o, 10 mg/kg) using the same vehicle (i.e., 20% Tween 80).
structure (smiles),measurement,setting,value
CN1CC(=O)N2C(Cc3ccc(O)cc3)C(=O)N(Cc3ccc(F)cc3F)CC2N1C(=O)NCc1ccccc1 (stereo not drawn) [COMPOUND 5],Effect on number of polyp compared to vehicle control,"[1]; Min mice, about 300 mpk",reduce the number of polyp
same,"Polyp Number (Mean + S.D.), Total",[1]; Min mouse,71.4 ± 23.0
same,"Polyp Number (Mean + S.D.), Colon","[1]; Min mouse, 100 mpk",1.7 ± 1.5
same,"Polyp Number (Mean + S.D.), Small intestine","[1]; Min mouse, 100 mpk",69.2 ± 20.8
same,"Polyp Number (Mean + S.D.), Colon","[1]; Min mouse, 300 mpk",1.1 ± 1.2
same,"Polyp Number (Mean + S.D.), Small intestine","[1]; Min mouse, 300 mpk",46.1 ± 17.1
same,"Polyp Number (Mean + S.D.), Total","[1]; Min mouse, 300 mpk",47.0 ± 16.9
same,% Inhibition vs. VH,"[1]; Min mouse, 300 mpk, total polyp number vs. vehicle",31%
same,Bioavailability,[2],~0%

# Reference: patent publication US7531320B2, “Modulation of β-catenin/TCF-activated transcription” (priority 2003, dated 2009)
